Patent US12312319B2, “Isoxazoline compounds, their preparation methods and use” (METISA BIOTECHNOLOGY CO., LTD, priority 2019, dated 2025)

Tests used:
Format in all cases: in vivo
Leucania separata = assay: Insecticidal activity against Leucania separata, Airbrush spraying of corn leaf segments; conditions: Mythimna separata, foliar, 72 h, 3rd instar larvae, 3 days after administration; for mortality at 1.25 µg/mL: 1.25 mg/L; for mortality at 2.5 µg/mL: 2.5 mg/L; for mortality at 5 µg/mL: 5 mg/L; for mortality at 10 µg/mL: 10 mg/L
Experimental: (§1) The compound to be determined was dissolved in a mixed solvent of acetone/methanol (1:1), followed by dilution with water containing 0.1% (wt) Tween 80 to a desired concentration.
(§2) The activities of the respective compounds against Leucania separata, Plutella xylostella, and Chilo suppressalis were determined by Airbrush spraying method.
(§3) The determination method was as follows: Corn leaves were cut into 2 cm long segments; the pressure of Airbrush spraying was 10 psi (about 0.7 kg/cm^2); both sides of each leaf segment were sprayed with 0.5 mL of the compound solution to be tested. After drying in the shade, ten 3rd instar larvae were inoculated for each treatment, and each treatment was replicated 3 times. After treatment, they were cultured in an observation room at a temperature of 25° C. and a relative humidity of 60-70%, and the number of surviving insects was examined and the mortality was calculated three days after administration.

Plutella xylostella = assay: Insecticidal activity against Plutella xylostella, Airbrush spraying of cabbage leaf discs; conditions: foliar, 72 h, 3rd instar larvae, 3 days after administration; for mortality at 5 µg/mL: 5 mg/L; for mortality at 10 µg/mL: 10 mg/L; for mortality at 2.5 µg/mL: 2.5 mg/L
Experimental: as §1, §2
as §3, with “Cabbage” for “Corn”, “made” for “cut”, “into leaf discs with a diameter of” for “into”, “by using a hole puncher;” for “long segments;”, “disc” for “segment”

Tetranychus cinnabarinus = assay: Acaricidal activity against Tetranychus cinnabarinus in greenhouse, bean seedling spraying; conditions: adult mites, 3 days (72 hours) after treatment; for mortality at 0.625 µg/mL: 0.625 mg/L; for mortality at 1.25 µg/mL: 1.25 mg/L; for mortality at 2.5 µg/mL: 2.5 mg/L; for mortality at 5 µg/mL: 5 mg/L
Experimental: The compounds of the invention were determined for the acaricidal activity in greenhouse. The determination method was as follows:
A bean seedling with two true leaves was taken for inoculating 30-40 adult mites of Tetranychus cinnabarinus. After examining the cardinal number, the whole seedling was treated by spraying with a hand-held sprayer, each treatment being replicated 3 times, and then placed in a standard observation room. The number of surviving mites was examined after 72 hours, and the mortality was calculated.

Chilo suppressalis = assay: Insecticidal activity against Chilo suppressalis, spraying of rice seedlings; conditions: 72 h, 3rd instar larvae, 3 days after administration; for mortality at 0.625 µg/mL: 0.625 mg/L; for mortality at 2.5 µg/mL: 2.5 mg/L; for mortality at 10 µg/mL: 10 mg/L
Experimental: as §1, §2
The determination method was as follows: 1) Preparation of rice seedlings: rice plants were cultivated in a plastic cup with a diameter of 4.5 cm and a height of 4 cm in a thermostatic chamber (temperature 26-28° C., relative humidity 60-80%, illumination 16 hL: 8 hD), and when the rice plants were developed to have 4-5 leaves, strong seedlings with identical growth vigour were selected for chemical treatment, and each treatment was replicated 3 times. 2) Preparation of insects to be tested: Chilo suppressalis, 3rd instar larvae, continuous lab rearing. 3) Inoculation of insects by spraying rice plant stems: The whole rice seedlings were sprayed evenly by using the spraying method, with 15 mL of the compound solution for each treatment. Firstly, the blank control was treated, and then the above procedure was replicated according to the order of test concentration from low to high. After rice seedlings were spray-treated, they were placed in the shade to dry, and the stems about 5 cm from the stem bases were cut off to feed the insects to be tested. Glass culture dishes with a diameter of 90 mm were prepared; each dish was padded with a filter paper at the bottom and added with water to keep moisture; about 5 rice stems were put into each dish and inoculated with 10 larvae, and each culture dish was then sealed with a non-woven and cultured in a thermostatic chamber. The number of residual live insects was examined 3 days after administration.

SMILES	mortality at 1.25 µg/mL (Leucania separata)	mortality at 2.5 µg/mL (Leucania separata)	mortality at 5 µg/mL (Leucania separata)	mortality at 10 µg/mL (Leucania separata)	mortality at 5 µg/mL (Plutella xylostella)	mortality at 10 µg/mL (Plutella xylostella)	mortality at 0.625 µg/mL (Tetranychus cinnabarinus)	mortality at 1.25 µg/mL (Tetranychus cinnabarinus)	mortality at 2.5 µg/mL (Tetranychus cinnabarinus)	mortality at 5 µg/mL (Tetranychus cinnabarinus)	mortality at 0.625 µg/mL (Chilo suppressalis)	mortality at 2.5 µg/mL (Chilo suppressalis)	mortality at 10 µg/mL (Chilo suppressalis)	mortality at 2.5 µg/mL (Plutella xylostella)
CCN1OC[C@@H](N(C(C)=O)C(=O)c2ccc(C3=NOC(c4cc(Cl)cc(Cl)c4)(C(F)(F)F)C3)cc2C)C1=O (mixture of isomers) [Compound 109]	26.7%	63.3%	83.3%	100%	70%	100%	16.7%	70%	100%	100%	80%	100%	100%	
CCOCC(=O)N(C(=O)c1ccc(C2=NOC(c3cc(Cl)cc(Cl)c3)(C(F)(F)F)C2)cc1C)[C@@H]1CON(CC)C1=O (mixture of isomers) [Compound 114]	100%	100%	100%	100%	86.7%	100%	100%	100%	100%	100%	83.3%	100%	100%	60%
CCN1OC[C@@H](N(C(=O)c2ccc(C3=NOC(c4cc(Cl)cc(Cl)c4)(C(F)(F)F)C3)cc2C)C(=O)C2CC2)C1=O (mixture of isomers) [Compound 112]	80%	96.7%	100%	100%	70%	100%	96.7%	100%	100%	100%	96.7%	100%	100%	
CCN1OC[C@@H](N(C(=O)COC)C(=O)c2ccc(C3=NOC(c4cc(Cl)c(F)c(Cl)c4)(C(F)(F)F)C3)cc2C)C1=O (mixture of isomers) [Compound 121]	100%	100%	100%	100%	100%	100%	100%	100%	100%	100%	90%	100%	100%	86.7%
CCN1OC[C@@H](N(C(=O)c2ccc(C3=NOC(c4cc(Cl)c(F)c(Cl)c4)(C(F)(F)F)C3)cc2C)C(=O)C2CC2)C1=O (mixture of isomers) [Compound 120]	100%	100%	100%	100%	100%	100%	100%	100%	100%	100%	96.7%	100%	100%	83.3%
CCN1OC[C@@H](N(C(=O)OC)C(=O)c2ccc(C3=NOC(c4cc(Cl)cc(Cl)c4)(C(F)(F)F)C3)cc2C)C1=O (stereo partly shown) [Comparative compound, reference compound]	0%	0%	13.3%	73.3%	30%	76.7%		20%	73.3%	100%	0%	0%	16.7%	0%
CCN1OC[C@@H](N(C(=O)COC)C(=O)c2ccc(C3=NOC(c4cc(Cl)cc(Cl)c4)(C(F)(F)F)C3)cc2C)C1=O (mixture of isomers) [Compound 113]	100%	100%	100%	100%	90%	100%	100%	100%	100%	100%	86.7%	100%	100%	66.7%
CCOCC(=O)N(C(=O)c1ccc(C2=NOC(c3cc(Cl)c(F)c(Cl)c3)(C(F)(F)F)C2)cc1C)[C@@H]1CON(CC)C1=O (mixture of isomers) [Compound 122]	100%	100%	100%	100%	100%	100%	100%	100%	100%	100%	93.3%	100%	100%	70%
